From paper PMC7115408 (European Journal of Medicinal Chemistry, 2014)
Entries after “also recorded” stand apart in the source; their conditions may differ. Where two headings read alike, the source gives them in different places.

Legend:
[1] = test system: SARS-CoV; experiment: microbe, parasite or virus in culture; format: cell-based, severe acute respiratory syndrome coronavirus (SARS-CoV); details: for EC50: read-out: SARS-CoV EC50
[2] = test system: WNV; experiment: In vitro antiviral screening, visual and neutral red tests; format: cell-based, West Nile virus (WNV); details: read-out: WNV EC50
[3] = test system: HSV-1; experiment: In vitro antiviral screening, cytopathic effect and neutral red assays; format: cell-based; details: read-out: HSV-1 EC50
[4] = test system: HBV; format: cell-based; details: read-out: HBV EC50; DNA virion assay
[5] = test system: influenza A virus H3N2; experiment: Anti influenza screening, cytopathic effect and cytotoxicity assays; format: cell-based; details: read-out: Influenza Type-A H3N2 EC50
[6] = test system: influenza A virus H1N1; experiment: as above; format: cell-based; details: read-out: Influenza Type-A H1N1 EC50
[7] = test system: influenza B virus; experiment: as above; format: cell-based; details: read-out: Influenza Type-B EC50
[8] = test system: HCV; format: cell-based; details: read-out: HCV EC50
[9] = test system: HSV-2; experiment: In vitro antiviral screening, cytopathic effect and neutral red assays; format: cell-based; details: read-out: HSV-2 EC50
[10] = test system: influenza A virus H5N1; format: cell-based; details: for EC50: read-out: Influenza Type-A H5N1 EC50
[11] = test system: Bacillus subtilis; experiment: Well diffusion zone of inhibition, antibacterial; format: cell-based; details: for Antibacterial activity against B. subtilis (in words): zone of inhibition compared to Ampicillin; for zone of inhibition at 250 µg/disc: Bacillus subtilis, 48 h, read-out: Diameter of inhibition zone, Bacillus subtilis
[12] = test system: Escherichia coli; experiment: Well diffusion zone of inhibition, antibacterial; format: cell-based; details: for zone of inhibition at 250 µg/disc: Escherichia coli, 48 h, read-out: Diameter of inhibition zone, Escherichia coli
[13] = test system: Asperigillus niger; experiment: Well diffusion zone of inhibition, antifungal; format: cell-based; details: Aspergillus niger, read-out: Diameter of inhibition zone, Asperigillus niger

## 2-Oxo-4,6-di(2-thienyl)nicotinonitrile [Compound 1c]
[1]
  EC50: > 100 µM
[2]
  EC50: > 4.6 µM
[3]
  EC50: > 12 µM
[4]
  EC50: > 100 µM
[5]
  EC50: 16 µM
[6]
  EC50: 32 µM
[7]
  EC50: > 100 µM
[8]
  EC50: > 100 µM
[9]
  EC50: > 12 µM
[10]
  EC50: > 100 µM

## 4-(4-Chlorophenyl)-2-oxo-6-(2-pyridyl)nicotinonitrile [Compound 1a]
[1]
  EC50: > 0.32 µM
[2]
  EC50: > 2.2 µM
[3]
  EC50: > 300 µM
[4]
  EC50: > 100 µM
[5]
  EC50: > 2.6 µM
[6]
  EC50: 26 µM
[7]
  EC50: > 36 µM
[8]
  EC50: > 100 µM
[9]
  EC50: > 300 µM
[10]
  EC50: > 100 µM

## 4-(4-Isopropylphenyl)-2-oxo-6-(2-thienyl)nicotinonitrile [Compound 1b]
[1]
  EC50: > 26 µM
[2]
  EC50: > 2.2 µM
[3]
  EC50: > 300 µM
[4]
  EC50: > 100 µM
[5]
  EC50: 22 µM
[7]
  EC50: 46 µM
[8]
  EC50: > 100 µM
[9]
  EC50: > 300 µM
[10]
  EC50: 32 µM

## CC(=O)OC[C@H]1O[C@@H](n2c(-c3ccccn3)cc(-c3ccc(Cl)cc3)c(C#N)c2=O)[C@H](OC(C)=O)[C@@H](OC(C)=O)[C@@H]1OC(C)=O [Compound 2aAc]
[1]
  Anti SARS-CoV activity (in words): slightly active by visual, but not neutral red test; also recorded: active
[10]
  Anti influenza A (H5N1) activity (in words): good and slightly active and active

## CC(C)c1ccc(-c2cc(-c3cccs3)n([C@@H]3O[C@H](CO)[C@@H](O)[C@H](O)[C@H]3O)c(=O)c2C#N)cc1 [Compound 2b, 1-(β-D-Glucopyranosyl)-4-(4-isopropylphenyl)-2-oxo-6-(2-thienyl)nicotinonitrile]
[11]
  Antibacterial activity against B. subtilis (in words): moderate antibacterial activity

## CC(=O)OC[C@H]1O[C@@H](n2c(-c3cccs3)cc(-c3ccc(C(C)C)cc3)c(C#N)c2=O)[C@H](OC(C)=O)[C@@H](OC(C)=O)[C@@H]1OC(C)=O [Compound 2bAc]
[11]
  Antibacterial activity against B. subtilis (in words): lower antibacterial activity

## N#Cc1c(-c2cccs2)cc(-c2cccs2)n([C@@H]2O[C@H](CO)[C@@H](O)[C@H](O)[C@H]2O)c1=O [Compound 2c, 1-(β-D-Glucopyranosyl)-2-oxo-4,6-di(2-thienyl)nicotinonitrile]
[11]
  Antibacterial activity against B. subtilis (in words): lower antibacterial activity
[12]
  zone of inhibition at 250 µg/disc: 0 mm
[13]
  zone of inhibition at 250 µg/disc: 8 mm

## CC(=O)OC[C@H]1O[C@@H](n2c(-c3cccs3)cc(-c3cccs3)c(C#N)c2=O)[C@H](OC(C)=O)[C@@H](OC(C)=O)[C@@H]1OC(C)=O [Compound 2cAc]
[1]; Severe acute respiratory syndrome coronavirus
  EC50: > 32 µM
[11]
  Antibacterial activity against B. subtilis (in words): lower antibacterial activity

## N#Cc1c(-c2ccc(Cl)cc2)cc(-c2ccccn2)n([C@@H]2O[C@H](CO)[C@H](O)[C@H](O)[C@H]2O)c1=O [Compound 3a, 4-(4-Chlorophenyl)-1-(β-D-galactopyranosyl)-2-oxo-6-(2-pyridyl)nicotinonitrile]
[11]
  Antibacterial activity against B. subtilis (in words): lower antibacterial activity

## CC(=O)OC[C@H]1O[C@@H](n2c(-c3ccccn3)cc(-c3ccc(Cl)cc3)c(C#N)c2=O)[C@H](OC(C)=O)[C@@H](OC(C)=O)[C@H]1OC(C)=O [Compound 3aAc]
[11]
  zone of inhibition at 250 µg/disc: 1 mm
  Antibacterial activity against B. subtilis (in words): lower antibacterial activity

## CC(C)c1ccc(-c2cc(-c3cccs3)n([C@@H]3O[C@H](CO)[C@H](O)[C@H](O)[C@H]3O)c(=O)c2C#N)cc1 [Compound 3b, 1-(β-D-Galactopyranosyl)-4-(4-isopropylphenyl)-2-oxo-6-(2-thienyl)nicotinonitrile]
[11]
  Antibacterial activity against B. subtilis (in words): lower antibacterial activity
[13]
  zone of inhibition at 250 µg/disc: 8 mm

## CC(=O)OC[C@H]1O[C@@H](n2c(-c3cccs3)cc(-c3ccc(C(C)C)cc3)c(C#N)c2=O)[C@H](OC(C)=O)[C@@H](OC(C)=O)[C@H]1OC(C)=O [Compound 3bAc]
[11]
  zone of inhibition at 250 µg/disc: 1 mm
  Antibacterial activity against B. subtilis (in words): lower antibacterial activity
[12]
  zone of inhibition at 250 µg/disc: 0 mm

## N#Cc1c(-c2cccs2)cc(-c2cccs2)n([C@@H]2O[C@H](CO)[C@H](O)[C@H](O)[C@H]2O)c1=O [Compound 3c, 1-(β-D-Galactopyranosyl)-2-oxo-4,6-di(2-thienyl)-nicotinonitrile]
[11]
  Antibacterial activity against B. subtilis (in words): lower antibacterial activity

## N#Cc1c(-c2ccc(Cl)cc2)cc(-c2ccccn2)nc1OCCCCO [Compound 5, 4-(4-Chlorolphenyl)-2-(4-hydroxybutyloxy)-6-(2-pyridyl)nicotinonitrile]
[11]
  Antibacterial activity against B. subtilis (in words): lower antibacterial activity

## CC(=O)OCCCCOc1nc(-c2ccccn2)cc(-c2ccc(Cl)cc2)c1C#N [Compound 5Ac]
[11]
  Antibacterial activity against B. subtilis (in words): lower antibacterial activity

## CC(C)c1ccc(-c2cc(-c3cccs3)n(COCCO)c(=O)c2C#N)cc1 [Compound 7b, 1-[(2-Hydroxyethoxy)methyl]-4-(4-isopropylphenyl)-2-oxo-6-(2-thienyl)nicotinonitrile]
[11]
  Antibacterial activity against B. subtilis (in words): good activity
[12]; zone of inhibition
  Antibacterial activity against E. coli (in words): no activity

## CC(=O)OCCOCn1c(-c2cccs2)cc(-c2cccs2)c(C#N)c1=O [Compound 7cAc, 1-[(2-Acetoxyethoxy)methyl]-2-oxo-4,6-di(2-thienyl)nicotinonitrile]
[11]
  Antibacterial activity against B. subtilis (in words): moderate antibacterial activity

## N#Cc1c(-c2ccc(Cl)cc2)cc(-c2ccccn2)n(CCCO)c1=O [Compound 8a, 4-(4-Chlorolphenyl)-1-(3-hydroxypropyl)-2-oxo-6-(2-pyridyl)nicotinonitrile]
[11]
  Antibacterial activity against B. subtilis (in words): lower antibacterial activity

## C=CCOc1nc(-c2ccccn2)cc(-c2ccc(Cl)cc2)c1C#N [Compound 9, 2-(Allyloxy)-4-(4-chlorolphenyl)-6-(2-pyridyl)nicotinonitrile]
[11]
  Antibacterial activity against B. subtilis (in words): lower antibacterial activity
